Data: the NIST ThermoML archive (doi:10.1016/j.fluid.2008.10.003)

Assay: isobaric coefficient of expansion; xn = mol fraction of the nth substance listed
Conditions: calorimetric method

CCCCCCO [hexan-1-ol] + CCCCCC
isobaric coefficient of expansion
Conditions | 5000 kPa | 10000 kPa | 15000 kPa | 20000 kPa | 25000 kPa | 30000 kPa | 35000 kPa | 40000 kPa | 45000 kPa | 50000 kPa
278.15 K, x1 = 0.0321 | 0.00122 1/K | 0.00117 1/K | 0.00114 1/K | 0.0011 1/K | 0.00107 1/K | 0.00104 1/K | 0.00101 1/K | 0.000982 1/K | 0.000957 1/K | 0.000935 1/K
278.15 K, x1 = 0.041 | 0.00122 1/K | 0.00118 1/K | 0.00114 1/K | 0.0011 1/K | 0.00107 1/K | 0.00104 1/K | 0.00101 1/K | 0.000977 1/K | 0.000958 1/K | 0.000937 1/K
278.15 K, x1 = 0.0946 | 0.00119 1/K | 0.00115 1/K | 0.00112 1/K | 0.00108 1/K | 0.00105 1/K | 0.00102 1/K | 0.000997 1/K | 0.000967 1/K | 0.000942 1/K | 0.000925 1/K
278.15 K, x1 = 0.1679 | 0.00116 1/K | 0.00112 1/K | 0.00108 1/K | 0.00105 1/K | 0.00102 1/K | 0.000996 1/K | 0.000974 1/K | 0.000947 1/K | 0.000923 1/K | 0.000907 1/K
278.15 K, x1 = 0.2153 | 0.00114 1/K | 0.0011 1/K | 0.00107 1/K | 0.00103 1/K | 0.00101 1/K | 0.000979 1/K | 0.000958 1/K | 0.000928 1/K | 0.000909 1/K | 0.000892 1/K
278.15 K, x1 = 0.3016 | 0.0011 1/K | 0.00106 1/K | 0.00103 1/K | 0.000999 1/K | 0.000978 1/K | 0.000953 1/K | 0.000932 1/K | 0.000911 1/K | 0.000887 1/K | 0.000868 1/K
278.15 K, x1 = 0.4075 | 0.00105 1/K | 0.00102 1/K | 0.000995 1/K | 0.000967 1/K | 0.000946 1/K | 0.000921 1/K | 0.000903 1/K | 0.000877 1/K | 0.000859 1/K | 0.000844 1/K
278.15 K, x1 = 0.503 | 0.00101 1/K | 0.000989 1/K | 0.000961 1/K | 0.00094 1/K | 0.000917 1/K | 0.000893 1/K | 0.000876 1/K | 0.000851 1/K | 0.000835 1/K | 0.00082 1/K
278.15 K, x1 = 0.594 | 0.000978 1/K | 0.000951 1/K | 0.000932 1/K | 0.000902 1/K | 0.000887 1/K | 0.000864 1/K | 0.00085 1/K | 0.000831 1/K | 0.000804 1/K | 0.0008 1/K
278.15 K, x1 = 0.6827 | 0.000937 1/K | 0.000916 1/K | 0.000897 1/K | 0.000874 1/K | 0.000857 1/K | 0.00084 1/K | 0.000824 1/K | 0.000804 1/K | 0.000791 1/K | 0.000775 1/K
278.15 K, x1 = 0.8013 | 0.000892 1/K | 0.000865 1/K | 0.000857 1/K | 0.000834 1/K | 0.000819 1/K | 0.000806 1/K | 0.000784 1/K | 0.000769 1/K | 0.000756 1/K | 0.000745 1/K
278.15 K, x1 = 0.8934 | 0.00085 1/K | 0.000837 1/K | 0.000817 1/K | 0.000803 1/K | 0.000789 1/K | 0.000775 1/K | 0.000756 1/K | 0.000751 1/K | 0.000733 1/K | 0.000723 1/K
278.15 K, x1 = 1 | 0.000821 1/K | 0.0008 1/K | 0.000788 1/K | 0.000778 1/K | 0.00076 1/K | 0.000748 1/K | 0.000733 1/K | 0.000723 1/K | 0.000716 1/K | 0.000708 1/K
298.15 K, x1 = 0.0321 | 0.0013 1/K | 0.00124 1/K | 0.0012 1/K | 0.00115 1/K | 0.00111 1/K | 0.00107 1/K | 0.00104 1/K | 0.00101 1/K | 0.00098 1/K | 0.000951 1/K
298.15 K, x1 = 0.041 | 0.0013 1/K | 0.00124 1/K | 0.0012 1/K | 0.00115 1/K | 0.00111 1/K | 0.00108 1/K | 0.00104 1/K | 0.00101 1/K | 0.000985 1/K | 0.000959 1/K
298.15 K, x1 = 0.0946 | 0.00127 1/K | 0.00122 1/K | 0.00118 1/K | 0.00113 1/K | 0.0011 1/K | 0.00106 1/K | 0.00103 1/K | 0.000999 1/K | 0.000969 1/K | 0.000946 1/K
298.15 K, x1 = 0.1679 | 0.00124 1/K | 0.00119 1/K | 0.00115 1/K | 0.0011 1/K | 0.00107 1/K | 0.00104 1/K | 0.00101 1/K | 0.000977 1/K | 0.00095 1/K | 0.000926 1/K
298.15 K, x1 = 0.2153 | 0.00121 1/K | 0.00116 1/K | 0.00112 1/K | 0.00108 1/K | 0.00105 1/K | 0.00102 1/K | 0.000988 1/K | 0.000962 1/K | 0.000936 1/K | 0.000913 1/K
298.15 K, x1 = 0.3016 | 0.00117 1/K | 0.00112 1/K | 0.00109 1/K | 0.00105 1/K | 0.00101 1/K | 0.000984 1/K | 0.000958 1/K | 0.000935 1/K | 0.000908 1/K | 0.000883 1/K
298.15 K, x1 = 0.4075 | 0.00112 1/K | 0.00108 1/K | 0.00105 1/K | 0.00102 1/K | 0.000986 1/K | 0.000957 1/K | 0.00093 1/K | 0.000912 1/K | 0.000888 1/K | 0.000868 1/K
298.15 K, x1 = 0.503 | 0.00108 1/K | 0.00104 1/K | 0.00101 1/K | 0.000982 1/K | 0.000952 1/K | 0.000928 1/K | 0.000904 1/K | 0.000879 1/K | 0.000864 1/K | 0.000844 1/K
298.15 K, x1 = 0.594 | 0.00103 1/K | 0.001 1/K | 0.000975 1/K | 0.000944 1/K | 0.00092 1/K | 0.000897 1/K | 0.000873 1/K | 0.000856 1/K | 0.000836 1/K | 0.000819 1/K
298.15 K, x1 = 0.6827 | 0.000993 1/K | 0.000965 1/K | 0.000939 1/K | 0.000913 1/K | 0.00089 1/K | 0.000868 1/K | 0.000846 1/K | 0.000827 1/K | 0.000812 1/K | 0.000794 1/K
298.15 K, x1 = 0.8013 | 0.000938 1/K | 0.000913 1/K | 0.00089 1/K | 0.000868 1/K | 0.000848 1/K | 0.00083 1/K | 0.000809 1/K | 0.000792 1/K | 0.000778 1/K | 0.000763 1/K
298.15 K, x1 = 0.8934 | 0.000896 1/K | 0.000874 1/K | 0.000855 1/K | 0.000835 1/K | 0.000816 1/K | 0.000797 1/K | 0.000781 1/K | 0.000763 1/K | 0.000751 1/K | 0.000739 1/K
298.15 K, x1 = 1 | 0.00085 1/K | 0.000832 1/K | 0.000812 1/K | 0.000796 1/K | 0.00078 1/K | 0.000764 1/K | 0.000749 1/K | 0.000734 1/K | 0.000724 1/K | 0.000712 1/K
